# Assay results: paper PMC4496362, “Potentiating the cellular targeting and anti-tumor activity of Dp44mT via binding to human serum albumin: two saturable mechanisms of Dp44mT uptake by cells” (Oncotarget, 2015)
# How the values were obtained:
# Assay type in all cases: binding
# Settings in all cases: read-out: % released into dialysate
# [1] = target: T1, human serum albumin (HSA) (Homo sapiens, UniProt P02768); experiment: equilibrium dialysis with […]-ligand; Trp-214 fluorescence quenching
# T1 construct: gene ALB
# [2] = target: T2, bovine serum albumin (BSA) (Bos taurus, UniProt P02769); experiment: equilibrium dialysis with […]-ligand (weak retention)
# T2 construct: gene ALB
# [3] = target: T2, bovine serum albumin (BSA); experiment: equilibrium dialysis with […]-ligand
# T1 sequence (P02768 25-609): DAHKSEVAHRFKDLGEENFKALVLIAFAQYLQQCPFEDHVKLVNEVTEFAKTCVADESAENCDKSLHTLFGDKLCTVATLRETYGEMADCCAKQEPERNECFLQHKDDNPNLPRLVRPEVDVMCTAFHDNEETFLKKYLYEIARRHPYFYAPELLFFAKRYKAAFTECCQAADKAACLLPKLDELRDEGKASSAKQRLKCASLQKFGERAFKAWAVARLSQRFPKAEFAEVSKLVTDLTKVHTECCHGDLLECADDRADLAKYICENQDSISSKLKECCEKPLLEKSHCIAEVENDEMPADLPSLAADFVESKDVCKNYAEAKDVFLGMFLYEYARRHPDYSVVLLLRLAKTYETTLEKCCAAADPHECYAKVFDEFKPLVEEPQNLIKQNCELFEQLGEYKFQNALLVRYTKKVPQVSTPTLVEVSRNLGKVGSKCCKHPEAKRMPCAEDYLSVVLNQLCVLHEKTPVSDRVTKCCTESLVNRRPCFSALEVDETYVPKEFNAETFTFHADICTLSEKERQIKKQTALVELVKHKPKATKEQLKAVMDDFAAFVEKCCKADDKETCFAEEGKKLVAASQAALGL
# T2 sequence (P02769 25-607): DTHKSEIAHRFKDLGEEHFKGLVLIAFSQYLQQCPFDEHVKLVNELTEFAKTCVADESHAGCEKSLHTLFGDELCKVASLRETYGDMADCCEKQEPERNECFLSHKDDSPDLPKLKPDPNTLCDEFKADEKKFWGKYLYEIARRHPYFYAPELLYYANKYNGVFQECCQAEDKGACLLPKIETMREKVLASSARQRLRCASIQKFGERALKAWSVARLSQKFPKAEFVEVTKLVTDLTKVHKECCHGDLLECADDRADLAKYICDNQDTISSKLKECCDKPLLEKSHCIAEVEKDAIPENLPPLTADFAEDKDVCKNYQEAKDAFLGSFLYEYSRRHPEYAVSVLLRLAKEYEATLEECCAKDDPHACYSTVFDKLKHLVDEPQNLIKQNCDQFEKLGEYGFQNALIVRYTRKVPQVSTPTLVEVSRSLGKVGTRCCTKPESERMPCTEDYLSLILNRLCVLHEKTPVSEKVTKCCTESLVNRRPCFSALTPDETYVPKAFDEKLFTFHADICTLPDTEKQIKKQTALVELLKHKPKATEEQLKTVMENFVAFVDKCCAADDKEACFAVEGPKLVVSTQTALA
fraction unbound [1],fraction unbound [3],SMILES,fraction unbound [2]
0.22 ± 0.01,0.21 ± 0.005,"CN(C)C(=S)NN=C(c1ccccn1)c1ccccn1 [Dp44mT, di-2-pyridylketone 4,4-dimethyl-3-thiosemicarbazone]",
0.04 ± 0.003,0.09 ± 0.003,"CCNC(=S)N/N=C(\c1ccccc1)c1ccccn1 [Bp4eT, 2-benzoylpyridine 4-ethyl-3-thiosemicarbazone]",

SMILES,fraction unbound [1],fraction unbound [3],fraction unbound [2]
"Cc1ncc(CO)c(C=NNC(=O)c2ccncc2)c1O [PIH, pyridoxal isonicotinoyl hydrazone]",0.06 ± 0.003,,0.39 ± 0.003
